Experimental data reported in patent US4009206A, “N-(substituted phenyl and benzyl)abietamides” (priority 1974, dated 1977).

Test system: cholesterol in blood
Assay: Reduction of blood cholesterol in rats fed a 1% cholesterol / 0.25% sodium cholate diet
Assay type: in vivo, male rats
Conditions: 3 days, control (cholesterol-administered) group = 0, normal group = 100, * 5%, ** 1% significance
Experimental: A completely synthetic diet containing 1% of cholesterol, 0.25% of sodium cholate and 0.0003%, 0.003%, and 0.03% of the test compound is given to a group of 6 male rats having a body weight of about 50 g consecutively for 3 days, and the rats are fasted overnight. Then, the rats are decapitated and blood is collected to determine the cholesterol concentration in blood. The concentration of cholesterol in blood is measured with Technicon Autoanalyzer(Technicon Laboratory: Method File N-24a) Obtained results are shown in Table 1.
Each value shown in the Table is a relative value determined based on the supposition that the value of the control group (the cholesterol-administered group) is 0 and the value of the normal group (the non-cholesterol-administered group) is 100.

Compound	% Inhibition (cholesterol in blood) (Dose in Diet 0.003%)	% Inhibition (cholesterol in blood) (Dose in Diet 0.03%)	% Inhibition (cholesterol in blood) (Dose in Diet 0.0003%)
CC(C)C1CCC2=C(CCC3C(C)(C(=O)NCc4ccc(Cl)cc4)CCCC23C)C1 (centres unmarked) [N-(4-chlorobenzyl)-Δ^8-dihydroabietamide]	9%	30%	–
Cc1cccc(C)c1NC(=O)C1(C)CCCC2(C)C3=C(CCC12)CC(C(C)C)CC3 (centres unmarked) [N-(2,6-dimethylphenyl)-Δ^8-dihydroabietamide]	76%	102%	33%
N-(m-bromophenyl)-dihydroabietamide	23%	60%	7%
